The values below come from patent publication US6489351B1, “Condensed 4,5,6,7-tetrahydrobenzo[C]thiophenes as enhancer for cell differentation induction factor action” (Takeda Chemical Industries, Ltd., priority 1996, dated 2002).

Each structure is given as a SMILES string.

The subject of series [1] is Mouse-derived osteoblast strain MC3T3-E1. The series is described as follows: Alkaline phosphatase production induction capability in mouse osteoblast strain. Type of series: cell-based. As to conditions: compound 10^−5 M, 72 hours, mean±S.E.; for Alkaline Phosphate Activity (A405 × 1,000), BMP Added (3 ng/ml): 3 ng/ml BMP-4/7 heterodimer, control 397 ± 30 (Experiment 4), 420 ± 1 (Experiment 5); for Alkaline Phosphate Activity (A405 × 1,000), BMP Not Added: no BMP, control 135 ± 2 (Experiment 4), 141 ± 8 (Experiment 5). As to the method:
Mouse-derived osteoblast strain MC3T3-E1 in α-MEM containing 10% fetal calf serum (FCS) was seeded to 96-well plates (8,000 cells/well); two days later, the sample, previously diluted with a medium containing or not containing 3 ng/ml BMP-4/7 of heterodimer (described in EP-A-0626451) to each concentration shown in Table 2, was added to the cells reaching a confluent state, followed by cultivation for 72 hours. After each plate was once washed with saline, substrate solution was added, followed by incubation at room temperature for 15 minutes. The reaction was stopped by 0.05 N sodium hydroxide, and the absorbance at 405 nm was determined. The values obtained are given in mean±S.E. in Table 2. The data were statistically analyzed by Student's t-test.

In series [2] the test system is Chondrocytes, prepared from rabbit rib cartilage. The series is described as follows: Anti-collagenase action in rabbit chondrocytes (IL-1-induced collagenase production). Type of series: cell-based. The following applies: IL-1 30 ng/ml added, 48 hours, mean±SE, control with IL-1 21.9 ± 1.7, without IL-1 0.1 ± 0.1. The protocol:
Chondrocytes, prepared from rabbit rib cartilage, were suspended in Dulbecco's MEM (DMEM) supplemented with 10% FCS, sown to 12-well plates, and cultured until a confluent state was reached. After the culture broth was removed, the cells were cultured for 48 hours in serum-free DMEM containing IL-1 (30 ng/ml) and the sample compound. The collagenase produced upon induction by IL-1 stimulation and secreted in the culture broth was activated by trypsinization; after a soybean trypsin inhibitor was added to inactivate the trypsin, activity was determined with type I collagen as the substrate. The values obtained are given in mean±SE in Table 3. The data were statistically analyzed by Student's t-test.

Series [3] relates to stromal cells prepared from the femoral marrow of a normal rat. The experiment in a line: Osteogenesis-promoting action: alkaline phosphatase activity in rat femoral marrow stromal cells. The format is cell-based. As to conditions: compound 10^−6 M; mean±SE; Experiment 3, control 63.1 ± 5.0. As to the method:
Using stromal cells prepared from the femoral marrow of a normal rat, alkaline phosphatase activity was determined as an index of osteogenesis. Specifically, stromal cells, prepared from the femoral marrow of a 7-week-old male Sprague-Dawley rat by the method of Maniatopoulos et al. [Cell Tissue Research, Vol. 254, p. 317 (1988)], were cultured in an α-MEM (minimum essential medium) solution containing both dexamethasone (10^−7 M) and β-glycerophosphoric acid (10^−2 M) to obtain calcified osteoid tissue. […] After washing with phosphate buffer, the cells were homogenized with 0.2% Nonidet P-40 and centrifuged at 3,000 rpm for 10 minutes. The resulting supernatant was assayed for alkaline phosphatase activity by the method of Lowry et al. [Journal of Biological Chemistry, Vol. 207, p. 19 (1954)]. The values obtained are given in mean±SE in Table 1. The data-were statistically analyzed by Student's t-test.

In the case of `Cc1nc2c(o1)-c1c(SC(C)C)sc(C(N)=O)c1CC2` [Example 47, 4,5-dihydro-8-isopropylthio-2-methylthieno[3,4-g]benzoxazole-6-carboxamide], the melting point lay in the range of 230 to 231 °C. For the same molecule, in series [1], the “Alkaline Phosphate Activity (A405 × 1,000), BMP Added (3 ng/ml)” value is given as 886 ± 35 A405 × 1,000 and the “Alkaline Phosphate Activity (A405 × 1,000), BMP Not Added” value is reported as 202 ± 21 A405 × 1,000.
As for `CSc1oc(C(=O)O)c2c1-c1nc(-c3ccccc3)sc1CC2` [Example 25, 4,5-dihydro-8-methylthio-2-phenylfuro[3,4-e]benzothiazole-6-carboxylic acid], the melting point is 206 to 207 °C (dec.). In series [2] (compound 10^−5 M), the “Collagenase Activity (units/ml)” value came out at 1.8 ± 0.6 units/ml. For the same molecule, in series [2] (compound 10^−6 M), the “Collagenase Activity (units/ml)” value came out at 11.0 ± 0.8 units/ml.
As to `CSc1sc(C(N)=O)c2c1-c1nc(C)sc1CC2` [Example 36, 4,5-dihydro-2-methyl-8-methylthiothieno[3,4-e]benzothiazole-6-carboxamide], the melting point lay in the range of 269 to 270 °C. For the same molecule, in series [1], the “Alkaline Phosphate Activity (A405 × 1,000), BMP Added (3 ng/ml)” value is recorded as 618 ± 13 A405 × 1,000 and the “Alkaline Phosphate Activity (A405 × 1,000), BMP Not Added” value is listed as 181 ± 6 A405 × 1,000.
`CSc1sc(C(=O)NCc2ccc3c(c2)OCO3)c2c1-c1nc(-c3ccccc3)sc1CC2` [Example 90, N-(3,4-methylenedioxybenzyl)-4,5-dihydro-8-methylthio-2-phenylthieno[3,4-e]benzothiazole-6-carboxamide] returned a melting point of 236 to 237 °C. Moreover, the “Alkaline Phosphatase Activity (nmol p-nitrophenol/min/well)” value in series [3] was 102.9 ± 7.3 nmol p-nitrophenol/min/well.
